Experimental data: patent publication US20200246316A1, “METHODS OF TREATING POST-SURGICAL PAIN WITH A THIAZOLINE ANTI-HYPERALGESIC AGENT” (CERSCI THERAPEUTICS, INC., priority 2019, published 2020)
Values joined by “and” are separate entries in the source; they are usually repeats but may differ in a detail not shown here. Identical values can stand only once. “Also recorded” adds a separate entry of the source. Counter-ions that a name gives are not always drawn. Like-named read-outs stand apart in the source and are kept apart here.

Tests used:
[1] = Gravimetric Vapor Sorption (GVS); format: physicochemical
Excerpt: The sample is hygroscopic.

[2] = Rat pharmacokinetics after single PO dose; conditions: for Compound 1 Concentration in rat plasma: 100 mg/kg single PO, individual animals
Description: In both assays, a deuterated (Compound 1-d4) internal standard was used.
The objective of this non-GLP study was to determine the pharmacokinetics of Compound 1 after a single oral (gavage) dose in rats, and to determine if Compound 1 undergoes epimerization in the rat. Compound 1 was administered to CD® IGS [Crl:CD(SD)] (Sprague Dawley) rats (5/sex/group) as a single oral gavage dose of 100 mg/kg in a vehicle of 0.5% aqueous HPMC. Rats were dosed at a dose volume of 10 mL/kg body weight.

[3] = Rat 7-day repeat dose PO study (toxicokinetics, MTD); format: in vivo; conditions: 2000 mg/kg
Excerpt: The vehicle was 0.5% HPMC.
Toxicokinetic (TK) results were as follows:

[4] = Rat brain distribution and pharmacokinetic study; format: in vivo
Excerpt: A rat brain distribution study performed in order to determine standard pharmacokinetic parameters and to assess the brain penetration properties of Compound 1 administered orally and intravenously.

[5] = system: rat hind paw incision model; assay: Brennan incisional pain model, prophylactic paradigm; format: in vivo
Excerpt: Two incisional pain models were used to assess Compound 1 effects on hyperalgesia. The first model is referred to as the Brennan model in which, under anesthesia, a 1 cm longitudinal incision to the skin and underlying fascia of a rat hindpaw is made. The second is a variation but is a more invasive procedure in which the skin and muscle are spread apart using forceps which creates a longer-lasting hypersensitivity.
Using the Brennan protocol and a prophylactic paradigm, Compound 1 (3 doses given PO) or vehicle was administered 15 min prior to incision. At the 24-, 48-, and 72-h time points post-incision, mechanical thresholds were obtained (manual von Frey filament, using up/down method).
In a subsequent experiment, the same paradigm was used with Compound 1 administered at a dose of 30 mg/kg PO along with positive control group consisting of celecoxib (30 mg/kg PO), morphine (10 mg/kg SC), and vehicle.

OAT3 = molecular target: T1, OAT3 (Homo sapiens, UniProt Q8TCC7); assay: Inhibition of uptake (SLC) transporters; format: in vitro ADME
T1 construct: expressed in transfected cells; host or cells: HEK293 cells
T1 sequence (Q8TCC7 whole entry): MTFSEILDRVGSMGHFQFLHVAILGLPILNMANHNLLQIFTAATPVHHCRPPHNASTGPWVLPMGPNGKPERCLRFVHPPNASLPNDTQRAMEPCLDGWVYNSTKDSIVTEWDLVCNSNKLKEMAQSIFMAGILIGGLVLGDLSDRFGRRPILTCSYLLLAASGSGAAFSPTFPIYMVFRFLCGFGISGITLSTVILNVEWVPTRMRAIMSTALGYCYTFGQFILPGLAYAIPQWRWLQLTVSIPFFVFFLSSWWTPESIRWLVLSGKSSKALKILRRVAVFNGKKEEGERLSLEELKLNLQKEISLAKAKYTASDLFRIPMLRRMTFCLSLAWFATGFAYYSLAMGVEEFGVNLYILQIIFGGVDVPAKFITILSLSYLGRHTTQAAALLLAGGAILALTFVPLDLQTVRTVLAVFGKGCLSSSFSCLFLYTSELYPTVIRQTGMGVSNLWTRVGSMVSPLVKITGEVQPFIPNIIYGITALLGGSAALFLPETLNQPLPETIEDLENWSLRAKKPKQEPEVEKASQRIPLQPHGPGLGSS

[6] = Red Blood Cell (RBC) partitioning; format: in vitro ADME; conditions: 60 min post-exposure
Excerpt: The compound distributed readily in tissues with a steady-state volume of distribution of 1.7 L/kg.

OATP1B3 = molecular target: T2, OATP1B3 (Homo sapiens, UniProt Q9NPD5); assay: Inhibition of uptake (SLC) transporters; format: in vitro ADME
T2 construct: expressed in transfected cells; host or cells: HEK293 cells
T2 sequence (Q9NPD5 whole entry): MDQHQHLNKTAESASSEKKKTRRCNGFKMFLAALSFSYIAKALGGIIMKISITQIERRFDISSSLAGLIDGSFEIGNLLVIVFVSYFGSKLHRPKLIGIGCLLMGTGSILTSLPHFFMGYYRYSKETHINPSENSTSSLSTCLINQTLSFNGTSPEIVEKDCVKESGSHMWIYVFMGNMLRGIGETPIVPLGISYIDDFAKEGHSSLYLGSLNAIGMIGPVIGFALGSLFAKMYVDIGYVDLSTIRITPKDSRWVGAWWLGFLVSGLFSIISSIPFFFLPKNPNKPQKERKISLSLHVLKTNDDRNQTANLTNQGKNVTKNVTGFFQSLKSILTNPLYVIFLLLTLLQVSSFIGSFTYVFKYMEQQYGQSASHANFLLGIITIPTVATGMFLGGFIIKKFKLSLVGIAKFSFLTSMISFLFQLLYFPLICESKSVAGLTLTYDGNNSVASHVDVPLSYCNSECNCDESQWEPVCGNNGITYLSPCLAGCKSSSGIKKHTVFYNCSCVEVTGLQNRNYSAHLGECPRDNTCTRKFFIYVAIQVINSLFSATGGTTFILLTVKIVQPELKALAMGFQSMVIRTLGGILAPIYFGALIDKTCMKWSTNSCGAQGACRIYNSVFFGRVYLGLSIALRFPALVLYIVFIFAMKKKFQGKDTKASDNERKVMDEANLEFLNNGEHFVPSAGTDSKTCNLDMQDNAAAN

[7] = Protein binding across species; format: in vitro ADME
P-gp = molecular target: T3, P-gp (Homo sapiens, UniProt P08183); assay: Inhibition of efflux (ABC) transporters; format: in vitro ADME
T3 construct: Caco-2 cells; endogenous in cells; host or cells: Caco-2 cells
T3 sequence (P08183 whole entry): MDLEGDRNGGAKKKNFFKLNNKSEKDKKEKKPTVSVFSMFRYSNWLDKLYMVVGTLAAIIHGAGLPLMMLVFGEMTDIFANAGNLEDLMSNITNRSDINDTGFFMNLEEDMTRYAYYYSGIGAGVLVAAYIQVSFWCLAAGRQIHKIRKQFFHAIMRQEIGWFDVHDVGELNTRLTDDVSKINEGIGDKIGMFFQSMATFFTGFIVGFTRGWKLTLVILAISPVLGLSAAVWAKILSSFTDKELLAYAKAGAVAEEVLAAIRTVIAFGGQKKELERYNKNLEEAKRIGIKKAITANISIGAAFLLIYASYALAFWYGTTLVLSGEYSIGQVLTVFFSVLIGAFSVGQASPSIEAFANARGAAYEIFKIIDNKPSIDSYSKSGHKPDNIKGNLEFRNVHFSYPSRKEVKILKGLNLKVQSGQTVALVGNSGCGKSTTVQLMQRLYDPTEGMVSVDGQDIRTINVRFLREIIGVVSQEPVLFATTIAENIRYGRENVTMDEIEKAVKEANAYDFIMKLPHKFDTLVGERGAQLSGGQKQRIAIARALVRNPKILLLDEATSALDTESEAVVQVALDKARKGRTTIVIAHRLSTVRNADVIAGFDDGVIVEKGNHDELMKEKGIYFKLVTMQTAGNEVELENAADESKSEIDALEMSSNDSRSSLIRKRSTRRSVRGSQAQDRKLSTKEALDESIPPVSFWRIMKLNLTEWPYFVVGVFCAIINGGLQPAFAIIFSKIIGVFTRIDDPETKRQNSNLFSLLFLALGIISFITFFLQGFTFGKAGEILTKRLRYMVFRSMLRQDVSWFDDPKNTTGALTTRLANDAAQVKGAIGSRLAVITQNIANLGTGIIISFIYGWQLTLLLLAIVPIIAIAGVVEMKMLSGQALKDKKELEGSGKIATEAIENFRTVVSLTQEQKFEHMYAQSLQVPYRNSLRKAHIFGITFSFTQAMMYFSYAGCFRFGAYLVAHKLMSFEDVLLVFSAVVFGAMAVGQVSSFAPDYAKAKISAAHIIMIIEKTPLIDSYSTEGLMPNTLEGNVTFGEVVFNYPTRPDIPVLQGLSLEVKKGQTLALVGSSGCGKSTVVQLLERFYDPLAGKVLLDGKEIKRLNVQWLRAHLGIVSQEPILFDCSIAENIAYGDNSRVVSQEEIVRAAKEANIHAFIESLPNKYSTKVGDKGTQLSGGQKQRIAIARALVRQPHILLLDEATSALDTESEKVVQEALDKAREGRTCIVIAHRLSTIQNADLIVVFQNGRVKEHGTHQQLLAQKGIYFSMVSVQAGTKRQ

MATE [8] = molecular target: T4, MATE (Homo sapiens, UniProt Q96FL8); assay: Inhibition of uptake (SLC) transporters; format: in vitro ADME; conditions: MATE1; HEK293 cells, probe [14C]-metformin (10 μM), pH 8.5, 0.3-600 μM tested
T4 construct: expressed in transfected cells; host or cells: HEK293 cells
T4 sequence (Q96FL8 whole entry): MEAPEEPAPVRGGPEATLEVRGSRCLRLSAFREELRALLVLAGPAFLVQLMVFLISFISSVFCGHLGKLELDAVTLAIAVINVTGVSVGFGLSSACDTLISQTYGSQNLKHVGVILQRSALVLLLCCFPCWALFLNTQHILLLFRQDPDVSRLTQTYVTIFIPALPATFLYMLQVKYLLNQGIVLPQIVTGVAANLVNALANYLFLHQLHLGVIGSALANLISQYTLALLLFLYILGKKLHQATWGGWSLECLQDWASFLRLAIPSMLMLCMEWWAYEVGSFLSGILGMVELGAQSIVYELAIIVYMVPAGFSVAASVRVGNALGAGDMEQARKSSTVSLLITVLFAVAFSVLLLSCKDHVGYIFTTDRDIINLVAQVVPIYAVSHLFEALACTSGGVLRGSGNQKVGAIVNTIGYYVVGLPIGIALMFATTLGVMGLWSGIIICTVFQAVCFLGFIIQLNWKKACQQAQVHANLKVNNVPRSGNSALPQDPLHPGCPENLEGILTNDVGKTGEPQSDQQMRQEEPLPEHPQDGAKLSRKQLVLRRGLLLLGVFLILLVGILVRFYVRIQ

MATE [9] = molecular target: T5, MATE (Homo sapiens, UniProt Q86VL8); assay: Inhibition of uptake (SLC) transporters; format: in vitro ADME; conditions: MATE2-K; HEK293 cells, probe [14C]-metformin (10 μM), pH 8.5, 0.3-600 μM tested
T5 construct: expressed in transfected cells; host or cells: HEK293 cells
T5 sequence (Q86VL8 1-566 isoform Q86VL8-3): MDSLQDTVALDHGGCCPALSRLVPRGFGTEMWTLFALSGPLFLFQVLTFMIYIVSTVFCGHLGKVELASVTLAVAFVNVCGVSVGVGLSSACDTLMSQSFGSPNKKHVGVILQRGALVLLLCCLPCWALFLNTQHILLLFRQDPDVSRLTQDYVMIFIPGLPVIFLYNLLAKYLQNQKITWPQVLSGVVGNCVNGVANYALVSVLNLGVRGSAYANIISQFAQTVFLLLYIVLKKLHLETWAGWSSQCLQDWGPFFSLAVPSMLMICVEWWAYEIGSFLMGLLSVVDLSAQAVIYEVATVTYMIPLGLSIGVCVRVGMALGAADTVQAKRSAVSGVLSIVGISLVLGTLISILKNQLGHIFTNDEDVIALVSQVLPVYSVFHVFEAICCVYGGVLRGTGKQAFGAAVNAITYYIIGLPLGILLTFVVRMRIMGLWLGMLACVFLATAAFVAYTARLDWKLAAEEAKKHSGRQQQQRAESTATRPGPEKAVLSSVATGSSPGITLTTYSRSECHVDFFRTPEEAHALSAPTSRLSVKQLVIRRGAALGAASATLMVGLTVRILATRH

[10] = Cytotoxicity by lactate dehydrogenase (LDH) release; format: cell-based; conditions: human, Caco-2 cells; read-out: percent cytotoxicity (LDH release)
uninjured animals = assay: Normal sensation in uninjured animals; format: in vivo
Excerpt: In various embodiments, Compound 1 is efficacious in in vivo animal models of acute post-incisional hyperalgesia, both prophylactically and palliatively. […] In various embodiments, less than about 1%, 0.8%, 0.6%, 0.4%, 0.2%, 0.1%, 0.08%, 0.06%, 0.04%, 0.02%, or 0.01% of Compound 1 in blood plasma penetrates the BBB.

[11] = female, Sprague Dawley (CD IGS, Crl:CD(SD)), rat, plasma, po, 100 mg/kg
[12] = male, Sprague Dawley, rat, plasma, po, 100 mg/kg
[13] = both, Sprague Dawley (Hsd:SD), rat, in vivo, po

## CC1(C)SC(Nc2ccccc2O)=N[C@@H]1C(=O)O [Compound 1, (R)-2-(2-hydroxyphenylamino)-5,5-dimethyl-4,5-dihydrothiazole-4-carboxylic acid mono-hydrochloride]
[1]; GVS
  hygroscopicity: hygroscopic
[1]; between 0% and 90% RH
  GVS uptake: 6%
[2]; Female, 0.5 h post-dose, mono-hydrochloride, 100 mg/kg
  Compound 1 Concentration in rat plasma: 36.4 µg/mL and 44.7 µg/mL and 43.2 µg/mL and 45.4 µg/mL
[2]; Female, 1 h post-dose, mono-hydrochloride, 100 mg/kg
  Compound 1 Concentration in rat plasma: 50.1 µg/mL and 63.6 µg/mL and 63.2 µg/mL and 69.7 µg/mL
[2]; Female, 2 h post-dose, mono-hydrochloride, 100 mg/kg
  Compound 1 Concentration in rat plasma: 63.1 µg/mL and 58.9 µg/mL and 60.1 µg/mL and 72.8 µg/mL
[2]; Female, 4 h post-dose, mono-hydrochloride, 100 mg/kg
  Compound 1 Concentration in rat plasma: 14.4 μg/mL (2×) and 31.5 μg/mL and 32.4 μg/mL and 20.4 μg/mL
[2]; Female, 8 h post-dose, mono-hydrochloride, 100 mg/kg
  Compound 1 Concentration in rat plasma: 1.78 µg/mL and 1.80 µg/mL and 4.14 µg/mL and 4.21 µg/mL and 2.23 µg/mL
[2]; Female, 24 h post-dose, mono-hydrochloride, 100 mg/kg
  Compound 1 Concentration in rat plasma: 0.250 µg/mL and 0.240 µg/mL and 0.489 µg/mL and 0.482 µg/mL and 0.428 µg/mL
[2]; Male, 0.5 h post-dose, mono-hydrochloride, 100 mg/kg
  Compound 1 Concentration in rat plasma: 17.5 µg/mL and 14.0 µg/mL and 11.4 µg/mL and 10.8 µg/mL
[2]; Male, 1 h post-dose, mono-hydrochloride, 100 mg/kg
  Compound 1 Concentration in rat plasma: 14.3 µg/mL and 22.6 µg/mL and 14.8 µg/mL and 11.0 µg/mL and 11.8 µg/mL
[2]; Male, 2 h post-dose, mono-hydrochloride, 100 mg/kg
  Compound 1 Concentration in rat plasma: 15.7 µg/mL and 14.0 µg/mL and 14.9 µg/mL and 10.7 µg/mL
[2]; Male, 4 h post-dose, mono-hydrochloride, 100 mg/kg
  Compound 1 Concentration in rat plasma: 4.82 µg/mL and 13.9 µg/mL and 1.56 µg/mL and 6.65 µg/mL and 3.81 µg/mL
[2]; Male, 8 h post-dose, mono-hydrochloride, 100 mg/kg
  Compound 1 Concentration in rat plasma: 2.81 µg/mL and 1.57 µg/mL and 1.53 µg/mL and 3.05 µg/mL
[2]; Male, 24 h post-dose, mono-hydrochloride, 100 mg/kg
  Compound 1 Concentration in rat plasma: 0.157 μg/mL and BQL (3×) and 1.04 μg/mL
[2]; [11]
  concentration at 0.5 h: 40800 ng/mL
  concentration at 2 h: 62600 ng/mL
  concentration at 8 h: 2830 ng/mL
  concentration at 24 h: 378 ng/mL
[2]; [12]
  concentration at 0.5 h: 13500 ng/mL
  concentration at 4 h: 6150 ng/mL
  concentration at 8 h: 2110 ng/mL
  concentration at 24 h: 599 ng/mL
[2]; rat plasma, mono-hydrochloride
  epimerization in vivo (chiral methods): no epimerization; also recorded: did not provide any evidence of epimerization
[3]; both sexes, Sprague Dawley (Hsd:SD), rat, in vivo, po
  Cmax: 121000 ng/mL
[3]; both sexes, Sprague Dawley (Hsd:SD), rat, in vivo, po, AUC0-24 (mean)
  AUC(0-t): 1370 µg·h/mL
[3]; both sexes, Sprague Dawley (Hsd:SD), rat, in vivo, po, Seventh Daily Dose, 2000 mg/kg PO, read-out: Cmax (mean)
  Cmax: 119000 ng/mL
[3]; both sexes, Sprague Dawley (Hsd:SD), rat, in vivo, po, T1/2 (mean)
  half-life: 3.9 h
[3]; both sexes, Sprague Dawley (Hsd:SD), rat, in vivo, po, Tmax (mean)
  Tmax: 2 h
[3]; both sexes, Sprague-Dawley (Hsd:SD), rat, in vivo, oral gavage 7 days
  MTD at 7 days: 2000 mg/kg
[3]; [13]
  AUC0-24 (mean): 1609 µg·h/mL
  T1/2 (mean): 6.7 h
  Tmax (mean): 1 h
[3]; female rats, oral gavage 7 days
  tolerability: tolerated
[4]; 30 mg/kg oral
  peak plasma concentration: 9 µg/mL
  time to peak plasma concentration: ≤ 1 h
[4]; rat, in vivo, 30 mg/kg oral dose
  bioavailability: 111%
[4]; rat, in vivo, 30 mg/kg oral dose, read-out: terminal half-life (converted)
  half-life: 1.6 h
[4]; rat, in vivo, 1 h after IV administration, read-out: brain-to-plasma concentration ratio
  Kp at 1 h: 0.02
[4]; rat, in vivo, mono-hydrochloride
  brain/tissue distribution: distributes to tissues but not to brain to an appreciable extent; also recorded: peripherally restricted
[5]; 10 mg/kg PO, mono-hydrochloride
  reversal of hyperalgesia: statistically significant reversal of hyperalgesia; also recorded: statistically significant effect
[5]; 30 mg/kg PO
  efficacy relative to vehicle: full efficacy
[5]; 3 doses PO, 24, 48, 72 h post-incision, mono-hydrochloride
  dose dependence of anti-hyperalgesic effect: reversal of hyperalgesia in a dose-dependent manner
[5]; 24-, 48-, 72-h post-incision, Compound 1 30 mg/kg PO, celecoxib 30 mg/kg PO, morphine 10 mg/kg SC
  mechanical withdrawal thresholds: 32 to 35 g
[5]; PO, single dose 15 min prior to incision
  dose required for significance: 10 mg/kg
[5]; single oral dose
  duration of prevention of incisional hyperalgesia: at least 3 days
[5]; single oral dose, FIG. 10
  duration of effect on development of hyperalgesia: prevented the development of hyperalgesia for three days
[5]; single pre-surgical dose, 24 h, 48 h, 72 h post dose, FIG. 11
  effect on development of mechanical hyperalgesia: completely prevented development of mechanical hyperalgesia out through day 3
OAT3; HEK293 cells, probe [3H]-estrone-3-sulfate (0.05 μM), 0.3-600 μM tested
  IC50: 174 µM
OAT3; OAT3
  transporter inhibition: weakly inhibits
[6]; dog
  KRBC/PL: < 0.25
[6]; human
  KRBC/PL: < 0.25
[6]; monkey
  KRBC/PL: < 0.25
[6]; rat
  KRBC/PL: < 0.25
OATP1B3; HEK293 cells, probe [3H]-estradiol-17β-glucuronide (0.05 μM), 0.3-600 μM tested
  IC50: > 600 µM
OATP1B3; OATP1B3
  transporter inhibition: does not inhibit
[7]
  protein binding: moderately protein-bound
P-gp; Caco-2 cells, probe substrate digoxin (10 μM), bidirectional transport, 1-600 μM tested
  IC50: > 600 µM
P-gp; P-gp
  transporter inhibition: does not inhibit
MATE [8]
  IC50: > 600 µM
MATE [9]
  IC50: > 600 µM
[10]
  cytotoxicity: < 25%
Uninjured animals
  effect on normal sensation: does not alter normal sensation
